Measured values taken from ChEMBL document CHEMBL6115057, “Discovery and Optimization of a Covalent AKR1C3 Inhibitor” (J Med Chem, 2025).
Residue numbers refer to the chain shown, from its start. Activity calls are given as the source filed them. No cut-off for these calls is given here.

Key:
[1] = target: T1, Aldo-keto reductase family 1 member C3 (Homo sapiens, UniProt P42330); assay: Inhibition of AKR1C3 in human COLO 205 cells by Cell based AKR activity assay
T1 sequence (P42330 whole entry): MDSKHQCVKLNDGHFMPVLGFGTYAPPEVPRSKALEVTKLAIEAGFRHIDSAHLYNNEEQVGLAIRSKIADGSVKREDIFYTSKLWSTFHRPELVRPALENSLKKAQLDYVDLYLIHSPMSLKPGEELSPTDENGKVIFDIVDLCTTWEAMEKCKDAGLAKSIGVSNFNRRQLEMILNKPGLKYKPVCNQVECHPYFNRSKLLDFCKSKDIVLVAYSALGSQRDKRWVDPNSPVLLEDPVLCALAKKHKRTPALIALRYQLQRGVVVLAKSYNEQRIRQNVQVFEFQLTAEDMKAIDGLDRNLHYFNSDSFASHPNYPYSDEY

Homo sapiens [2] = organism: Homo sapiens; assay: Selectivity ratio, ratio of IC50 for AKR1C2 (unknown origin) to AKR1C3 (unknown origin)
Homo sapiens [3] = organism: Homo sapiens; assay: Selectivity ratio, ratio of IC50 for AKR1C1 (unknown origin) to AKR1C3 (unknown origin)
[4] = target: T2, Aldo-keto reductase family 1 member C3 (Homo sapiens) (UniProt P42330); assay: Binding affinity to AKR1C3 in human live COLO 205 cells assessed as interaction at Y272 by measuring competition ratio at 10 uM measured after 2 hrs relative to control; type: cell-based
T2 sequence (whole entry): T1 sequence (P42330 whole entry)

[5] = target: T3, Aldo-keto reductase family 1 member C2 (Homo sapiens, UniProt P52895); assay: Inhibition of AKR1C2 (unknown origin) in human HEK293T cells assessed as turnover of coumberone to coumberol by live cell coumberone reduction assay; type: cell-based
T3 sequence (P52895 whole entry): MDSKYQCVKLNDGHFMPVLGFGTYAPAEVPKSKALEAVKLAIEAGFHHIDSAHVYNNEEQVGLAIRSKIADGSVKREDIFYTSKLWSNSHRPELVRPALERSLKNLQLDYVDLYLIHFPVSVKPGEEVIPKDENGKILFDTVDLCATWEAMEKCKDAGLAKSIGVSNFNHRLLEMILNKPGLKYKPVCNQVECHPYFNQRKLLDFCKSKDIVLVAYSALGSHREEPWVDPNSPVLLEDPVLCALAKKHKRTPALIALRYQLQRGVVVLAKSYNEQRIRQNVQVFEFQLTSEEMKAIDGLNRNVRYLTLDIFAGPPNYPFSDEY

[6] = target: T2, Aldo-keto reductase family 1 member C3 (Homo sapiens); assay: Inhibition of RJG-2121 probe labelling of AKR1C3 in human COLO 205 cells in presence of CuAAC Gel-Based (competitive ABPP) Chemical Proteomics Assay; type: cell-based
[7] = target: T4, Aldo-keto reductase family 1 member C4 (Homo sapiens, UniProt P17516); assay: Inhibition of AKR1C4 (unknown origin) in human HEK293T cells assessed as turnover of coumberone to coumberol by live cell coumberone reduction assay; type: cell-based
T4 sequence (P17516 whole entry): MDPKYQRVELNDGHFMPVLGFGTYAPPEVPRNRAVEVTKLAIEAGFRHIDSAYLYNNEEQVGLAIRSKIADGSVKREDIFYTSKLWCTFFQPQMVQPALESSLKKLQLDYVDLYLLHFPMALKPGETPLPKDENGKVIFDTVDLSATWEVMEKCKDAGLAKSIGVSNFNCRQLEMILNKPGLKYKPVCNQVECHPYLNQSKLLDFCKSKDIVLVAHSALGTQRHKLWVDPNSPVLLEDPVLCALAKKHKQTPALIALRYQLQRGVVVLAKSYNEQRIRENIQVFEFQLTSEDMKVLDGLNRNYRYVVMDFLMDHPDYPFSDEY

Homo sapiens [8] = organism: Homo sapiens; assay: Selectivity ratio, ratio of IC50 for AKR1C4 (unknown origin) to AKR1C3 (unknown origin)
[9] = target: T2, Aldo-keto reductase family 1 member C3 (Homo sapiens); assay: Binding affinity to AKR1C3 in human live COLO 205 cells assessed as interaction at Y24 at 10 uM measured after 2 hrs; type: cell-based
[10] = target: T5, Aldo-keto reductase family 1 member C1 (Homo sapiens) (UniProt Q04828); assay: Binding affinity to AKR1C1 in human live COLO 205 cells assessed as interaction at Y24/T126 by measuring competition ratio at 10 uM measured after 2 hrs relative to control; type: cell-based
T5 sequence (whole entry): T3 sequence (P52895 whole entry) with V38T, H47R, V54L, S87C, M151V, H170R, L172Q

[11] = target: T2, Aldo-keto reductase family 1 member C3 (Homo sapiens); assay: Inhibition of TMT-SuTex labelling of AKR1C3 in human live COLO 205 cells assessed as blockade of probe labelling at 10 uM measured after 2 hrs relative to control; type: cell-based
[12] = target: T2, Aldo-keto reductase family 1 member C3 (Homo sapiens); assay: Inhibition of TMT-SuTex labelling of AKR1C3 in human live COLO 205 cells assessed as competition ratio at 10 uM measured after 2 hrs relative to control; type: cell-based
[13] = target: Aldo-keto reductase family 1 member B10 (Homo sapiens) (UniProt O60218); assay: Binding affinity to AKR1B10 in human live COLO 205 cells assessed as interaction at Y49 by measuring competition ratio at 10 uM measured after 2 hrs relative to control; type: cell-based
[14] = target: T6, Aldo-keto reductase family 1 member C1 (Homo sapiens, UniProt Q04828); assay: Inhibition of AKR1C1 (unknown origin) in human HEK293T cells assessed as turnover of coumberone to coumberol by live cell coumberone reduction assay; type: cell-based
T6 sequence (Q04828 whole entry): T3 sequence (P52895 whole entry) with V38T, H47R, V54L, S87C, M151V, H170R, L172Q

[15] = target: T5, Aldo-keto reductase family 1 member C1 (Homo sapiens); assay: Inhibition of RJG-2121 probe labelling of AKR1C1 (unknown origin) expressed in human HEK293T cells in presence of CuAAC measured by Gel-Based (competitive ABPP) Chemical Proteomics Assay; type: cell-based; conditions: time 5-120 min
[16] = target: T2, Aldo-keto reductase family 1 member C3 (Homo sapiens); assay: Binding affinity to AKR1C3 in human COLO 205 cells assessed as interaction at Y24/Y55 at 100 uM measured after 4 hrs; type: cell-based
[17] = target: T5, Aldo-keto reductase family 1 member C1 (Homo sapiens); assay: Inhibition of RJG-2121 probe labelling of AKR1C1 (unknown origin) expressed in human HEK293T cells in presence of CuAAC measured after 5 to 120 mins by Gel-Based (competitive ABPP) Chemical Proteomics Assay; type: cell-based; conditions: time 5-120 min
[18] = target: T2, Aldo-keto reductase family 1 member C3 (Homo sapiens); assay: Inhibition of RJG-2121 probe labelling of AKR1C3 (unknown origin) expressed in human HEK293T cells in presence of CuAAC measured after 5 to 120 mins by Gel-Based (competitive ABPP) Chemical Proteomics Assay; type: cell-based; conditions: time 5-120 min
[19] = target: T7, Aldo-keto reductase family 1 member C2 (Homo sapiens) (UniProt P52895); assay: Inhibition of RJG-2121 probe labelling of AKR1C2 (unknown origin) expressed in human HEK293T cells in presence of CuAAC measured after 5 to 120 mins by Gel-Based (competitive ABPP) Chemical Proteomics Assay; type: cell-based; conditions: time 5-120 min
T7 sequence (whole entry): T3 sequence (P52895 whole entry)

HEK293T = assay: Inhibition of RJG-2121 probe labelling of AKR1C4 (unknown origin) expressed in human HEK293T cells in presence of CuAAC measured after 5 to 120 mins by Gel-Based (competitive ABPP) Chemical Proteomics Assay; type: cell-based; conditions: time 5-120 min
[20] = target: T7, Aldo-keto reductase family 1 member C2 (Homo sapiens); assay: Binding affinity to AKR1C2 in human COLO 205 cells assessed as interaction at Y55 at 100 uM measured after 4 hrs; type: cell-based
[21] = target: T5, Aldo-keto reductase family 1 member C1 (Homo sapiens); assay: Binding affinity to AKR1C1 in human COLO 205 cells assessed as interaction at Y55 at 100 uM measured after 4 hrs; type: cell-based

Aldo-keto reductase family 1 member B10 (Homo sapiens), sequence (O60218 whole entry, looked up): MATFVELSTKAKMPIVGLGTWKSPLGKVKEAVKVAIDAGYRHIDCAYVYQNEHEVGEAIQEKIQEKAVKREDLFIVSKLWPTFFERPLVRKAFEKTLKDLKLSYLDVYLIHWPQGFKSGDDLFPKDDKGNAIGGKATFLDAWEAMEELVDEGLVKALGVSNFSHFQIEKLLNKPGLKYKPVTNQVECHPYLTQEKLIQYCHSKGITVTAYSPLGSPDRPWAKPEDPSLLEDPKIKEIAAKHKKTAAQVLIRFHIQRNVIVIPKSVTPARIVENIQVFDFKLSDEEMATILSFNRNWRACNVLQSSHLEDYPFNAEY

Row | IC50 [1] [µM] | SMILES | also measured
1 | 7.1 | COc1ccccc1N1CCN(C(=O)c2ccc(S(=O)(=O)n3cnc(-c4cccnc4)n3)cc2)CC1 | –
2 | > 10 | O=C(Nc1ccc(-c2ccccc2OC(F)(F)F)cc1)c1ccc(S(=O)(=O)n2cncn2)cc1 | –
3 | 0.62 | COc1ccccc1N1CCN(C(=O)c2ccc(S(=O)(=O)n3cnc(-c4cccc(F)c4)n3)cc2)CC1 | –
4 | 0.93 | COc1ccccc1N1CCN(C(=O)c2ccc(S(=O)(=O)n3cnc(-c4ccc(C(F)(F)F)cc4)n3)cc2)CC1 | –
5 | 0.027 | COc1ccccc1N1CCN(C(=O)c2ccc(S(=O)(=O)n3cnc(C4CCCCC4)n3)cc2)CC1 | Ratio IC50 (Homo sapiens [2]): 1770; Ratio IC50 (Homo sapiens [3]): 2380; Ratio [4]: 1; IC50 [5]: 23 µM; inhibition [6]: Dose-dependent-effect; IC50 [7]: 6 µM; Ratio IC50 (Homo sapiens [8]): 461; Activity [9]: Active; Ratio [10]: 1; inhibition [11]: > 75%; Ratio [12]: 0.25; Ratio [13]: 1; IC50 [14]: 31 µM; inhibition [15]: Time-dependent-effect
6 | > 10 | COc1ccccc1N1CCN(C(=O)c2cccc(S(=O)(=O)n3cnc(-c4cccnc4)n3)c2)CC1 | –
7 | 2.7 | COc1ccccc1N1CCN(C(=O)c2ccc(S(=O)(=O)n3cnc(-c4ccccc4)n3)cc2)CC1 | –
8 | > 10 | COc1ccccc1N1CCN(C(=O)c2cccc(S(=O)(=O)n3cnc(C4CCCCC4)n3)c2)CC1 | –
9 | 0.54 | COc1cccc(N2CCN(C(=O)c3ccc(S(=O)(=O)n4cncn4)cc3)CC2)c1 | –
10 | – | C#CCNC(=O)c1ccc(S(=O)(=O)n2cnc(C3CCCCC3)n2)cc1 | Activity [16]: Active
11 | 0.062 | COc1ccccc1N1CCN(C(=O)c2ccc(S(=O)(=O)n3cnc(C4CCC4)n3)cc2)CC1 | –
12 | 0.33 | O=C(c1ccc(S(=O)(=O)n2cncn2)cc1)N1CCN(c2ccc(I)cc2)CC1 | –
13 | – | C#CCN(C)C(=O)c1ccc(S(=O)(=O)n2cnc(C3CC3)n2)cc1 | Activity [16]: Active
14 | 2.6 | O=C(c1ccc(S(=O)(=O)n2cncn2)cc1)N1CCN(c2ccccn2)CC1 | –
15 | 4.7 | COc1ccccc1NC1CCN(C(=O)c2ccc(S(=O)(=O)n3cncn3)cc2)CC1 | –
16 | > 10 | COc1ccccc1N1CCN(C(=O)c2cccc(S(=O)(=O)n3cncn3)c2)CC1 | Activity [6]: inactive; inhibition [17]: inactive; inhibition [18]: inactive; inhibition [19]: inactive; inhibition (HEK293T): inactive
17 | 5 | COc1ccccc1N1CCN(C(=O)c2ccc(S(=O)(=O)n3cnc(-c4ccco4)n3)cc2)CC1 | –
18 | – | C#CCNC(=O)c1cccc(S(=O)(=O)n2cncn2)c1 | Activity [16]: Active

Row | IC50 [1] [µM] | SMILES | also measured
19 | 0.041 | COc1ccccc1N1CCN(C(=O)c2ccc(S(=O)(=O)n3cnc(C4CCCC4)n3)cc2)CC1 | –
20 | 4.2 | COc1ccccc1N1CCN(C(=O)c2ccc(S(=O)(=O)n3cnc(-c4ccncc4)n3)cc2)CC1 | –
21 | 9.2 | COc1ccccc1N1CCN(C(=O)c2cccc(S(=O)(=O)n3cnc(C4CC4)n3)c2)CC1 | –
22 | 4.7 | COc1ccccc1N1CCN(C(=O)c2ccc(S(=O)(=O)n3cnc(-c4ccccc4F)n3)cc2)CC1 | –
23 | > 10 | NS(=O)(=O)c1ccc(-n2nc(CCCNC(=O)Nc3ccc(C(F)(F)F)cc3)cc2-c2ccccc2)cc1 | –
24 | > 10 | COc1ccccc1N1CCN(C(=O)c2ccc(S(=O)(=O)n3cnc(-c4ccc(-c5ccccc5)cc4)n3)cc2)CC1 | –
25 | 1.1 | COc1ccccc1N1CCN(C(=O)c2ccc(S(=O)(=O)n3cnc(-c4ccc(OC(F)(F)F)cc4)n3)cc2)CC1 | –
26 | 0.95 | COc1ccc(N2CCN(C(=O)c3ccc(S(=O)(=O)n4cncn4)cc3)CC2)cc1 | –
27 | – | C#CCN(C)C(=O)c1cccc(S(=O)(=O)n2cnc(C3CC3)n2)c1 | Activity [20]: Active; Activity [21]: Active
28 | 0.51 | COc1ccccc1N1CCN(C(=O)c2ccc(S(=O)(=O)n3cnc(-c4ccc(F)cc4)n3)cc2)CC1 | –
29 | 2.4 | COc1ccccc1N1CCN(C(=O)c2ccc(S(=O)(=O)n3cncn3)cc2)CC1 | –
30 | – | C#CCN(C)C(=O)c1ccc(S(=O)(=O)n2cncn2)cc1 | Activity [20]: Active; Activity [21]: Active
31 | 0.087 | COc1ccccc1N1CCN(C(=O)c2ccc(S(=O)(=O)n3cnc(C4CC4)n3)cc2)CC1 | –
32 | – | C#CCNC(=O)c1ccc(S(=O)(=O)n2cnc(C3CC3)n2)cc1 | Activity [16]: Active
33 | 8.7 | COc1ccccc1-c1ccc(NC(=O)c2ccc(S(=O)(=O)n3cncn3)cc2)cc1 | –
34 | 0.98 | COc1ccccc1N1CCN(C(=O)c2ccc(S(=O)(=O)n3cnc(-c4ccc(Br)cc4)n3)cc2)CC1 | –
35 | 0.5 | COc1ccc(-c2ncn(S(=O)(=O)c3ccc(C(=O)N4CCN(c5ccccc5OC)CC4)cc3)n2)cc1 | –
36 | > 10 | O=C(Nc1ccc(-c2ccccn2)cc1)c1ccc(S(=O)(=O)n2cncn2)cc1 | –
